Data: US9216183B2, “Topical treatment for chemotherapy induced eyelash loss or hypotrichosis using prostamide F2 alpha agonists” (ALLERGAN, INC., priority 2002, dated 2015)

Test system: eyelashes of subjects with idiopathic hypotrichosis
Assay: Digital image analysis of upper eyelash length, thickness, darkness, idiopathic hypotrichosis
Format: in vivo, human
Conditions: for Upper eyelash length, mean % change from baseline / Upper eyelash length, mean value / Upper eyelash thickness, mean % change from baseline / Upper eyelash thickness, mean value / Upper eyelash darkness, mean % change from baseline / Upper eyelash darkness, mean value: Bim/Veh group (n = 60); for Upper eyelash darkness, mean % change from baseline / Upper eyelash darkness, mean percent change from baseline: negative = darker; for Upper eyelash darkness, mean value: scale 0 black to 255 white
Experimental: Secondary efficacy measures were based on digital image analysis (DIA) of eyelash characteristics: upper eyelash length (millimeters [mm]), thickness (mm^2), and darkness (intensity units). For darkness, a negative value in terms of change from baseline indicated darker eyelashes. Upper eyelash characteristics of length, thickness, and darkness were determined by a validated DIA method. The reliability and reproducibility of DIA have been verified within the acceptance criteria of 0.05% or less of mean coefficient of variance. The principal variables for the secondary efficacy assessments are: change from baseline in upper eyelash length (mm), average progressive eyelash thickness (mm^2), and eyelash darkness (intensity units) at months 4, 6, 10, and 12 or early termination. Descriptive statistics of the raw value at baseline and percent change from baseline at follow-up visits were summarized by treatment group for each principal measure of the 3 secondary variables of eyelash characteristics. Between-group comparisons were performed using a van Elteren test stratified by hypotrichosis etiology.

[1] = Month 10 (vehicle since month 6)
[2] = Month 12 (vehicle since month 6)
[3] = Month 4, all bimatoprost TP1 (n = 179)
[4] = Month 4, all bimatoprost TP1 (n = 179), listed as Bimatoprost
[5] = Month 6, all bimatoprost TP1 (n = 179)
[6] = Month 6, group treated up to 12 months with bimatoprost
[7] = Month 12, group treated up to 12 months with bimatoprost

CCNC(=O)CCC/C=C\C[C@@H]1[C@@H](/C=C/[C@@H](O)CCc2ccccc2)[C@H](O)C[C@@H]1O [Bim 0.03%, bimatoprost]
Upper eyelash length, mean % change from baseline (Month 4 (on bimatoprost)): 21.01% | Upper eyelash length, mean value (Month 4 (on bimatoprost)): 6.8 mm | Upper eyelash thickness, mean % change from baseline (Month 4 (on bimatoprost)): 73.7% | Upper eyelash thickness, mean value (Month 4 (on bimatoprost)): 1.2 mm^2 | Upper eyelash darkness, mean % change from baseline (Month 4 (on bimatoprost)): −16.01% | Upper eyelash darkness, mean value (Month 4 (on bimatoprost)): 126.3 intensity units | Upper eyelash length, mean % change from baseline (Month 6 (on bimatoprost)): 25.70% | Upper eyelash length, mean value (Month 6 (on bimatoprost)): 7.1 mm | Upper eyelash thickness, mean % change from baseline (Month 6 (on bimatoprost)): 79.9% | Upper eyelash thickness, mean value (Month 6 (on bimatoprost)): 1.2 mm^2 | Upper eyelash darkness, mean % change from baseline (Month 6 (on bimatoprost)): −14.89% | Upper eyelash darkness, mean value (Month 6 (on bimatoprost)): 128.0 intensity units | Upper eyelash length, mean % change from baseline [1]: 6.46% | Upper eyelash length, mean value [1]: 6.0 mm | Upper eyelash thickness, mean % change from baseline [1]: 13.0% | Upper eyelash thickness, mean value [1]: 0.8 mm^2 | Upper eyelash darkness, mean % change from baseline [1]: −3.97% | Upper eyelash darkness, mean value [1]: 143.7 intensity units | Upper eyelash length, mean % change from baseline [2]: 4.62% | Upper eyelash length, mean value [2]: 5.9 mm | Upper eyelash thickness, mean % change from baseline [2]: 15.9% | Upper eyelash thickness, mean value [2]: 0.9 mm^2 | Upper eyelash darkness, mean % change from baseline [2]: −4.29% | Upper eyelash darkness, mean value [2]: 143.6 intensity units | Upper eyelash length, mean percent change from baseline [3]: 22.90% | Upper eyelash thickness, mean percent change from baseline [3]: 95.90% | Upper eyelash length, mean percent change from baseline [4]: 22.9 (177) % | Upper eyelash thickness, mean percent change from baseline [4]: 95.9 (150) % | Upper eyelash darkness, mean percent change from baseline [3]: −15.70% | Upper eyelash darkness, mean percent change from baseline [4]: −15.7 (150) % | Upper eyelash length, mean percent change from baseline [5]: 26.0 (177) % | Upper eyelash thickness, mean percent change from baseline [5]: 91.4 (150) % | Upper eyelash darkness, mean percent change from baseline [5]: −14.1 (150) % | Eyelash length, mean percent increase from baseline [6]: 26.17% | Eyelash length, median percent increase from baseline [6]: 22.4% | Increase in mean eyelash length from baseline [6]: 1.44 mm | Eyelash length, mean percent increase from baseline [7]: 25.86% | Eyelash length, median percent increase from baseline [7]: 22.63%
